Reference: patent publication US20100022648A1, “ORAL USE OF AT LEAST ONE MONOUNSATURATED FATTY ACID FOR HAIR IMPROVEMENT” (L'OREAL, priority 2006, published 2010)
Marks after values point to notes of the source that are not given here.

Test system: dermal fibroblasts
Test: Formation of glycation products in cultures of dermal fibroblasts (Dot Blot immunodetection, densitometric analysis)
Format: cell-based
Conditions: culture of dermal fibroblasts; for % GP relative to the control: GP = glycation products, Aminoguanidine 1 mg/ml, Petroselinic acid 0.885 mM, control = 100, p < 0.01; for decrease in the formation of glycation products relative to the control: same concentrations as Table 1
Method: Dermal fibroblasts are cultured by the usual techniques that are well known by a person skilled in the art.
The glycation products are quantified by densitometric analysis of the spots in immunodetection of the glycation products (Dot Blot method), relative to a control (culture of fibroblasts without addition of the product).
Thus, aminoguanidine reduces the amount of glycation product relative to the control by 58%.
In another case, the culture of fibroblasts is supplemented with petroselinic acid.

| Compound | % GP relative to the control | % GP relative to the control (listed as aminoguanidine) | decrease in the formation of glycation products relative to the control | % GP relative to the control (listed as petroselinic acid) |
| --- | --- | --- | --- | --- |
| N=C(N)NN [Aminoguanidine, aminoguanidine] | 42* % | 42% | 58% |  |
| CCCCCCCCCCC/C=C\CCCCC(=O)O [Petroselinic acid, petroselinic acid] | 73* % |  | 27% | 73% |
